Experimental data from PubChem BioAssay AID256 (DTP/NCI, 2004).
Inconclusive results and toxic doses are left out. The calls were made as follows: active = survival T/C of 150% or more; inactive = T/C below 125% in these data.

Tested on: CD2F1 mice, L1210 leukemia ip, survival T/C
Test: NCI In Vivo Anticancer Drug Screen. Data for tumor model L1210 Leukemia (intraperitoneal) in CD2F1 (CDF1) mice
Conditions: higher = longer survival
Procedure, shortened: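 Activity against a transplanted murine tumor was judged by comparing the compound group with a vehicle group. The outcome in the treated animals was divided by that in the controls.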

[1] = endpoint: mean survival time, dose: 100.0 mg/kg/injection, schedule: Q01DX009 (ip), vehicle: saline with Tween-80
[2] = endpoint: mean survival time, dose: 100.0 mg/kg/injection, schedule: Q04DX003 (ip), vehicle: saline with Tween-80
[3] = endpoint: mean survival time, dose: 200.0 mg/kg/injection, schedule: Q01DX009 (ip), vehicle: saline with Tween-80
[4] = endpoint: mean survival time, dose: 200.0 mg/kg/injection, schedule: Q04DX003 (ip), vehicle: saline with Tween-80
[5] = endpoint: mean survival time, dose: 400.0 mg/kg/injection, schedule: Q01DX009 (ip), vehicle: saline with Tween-80
[6] = endpoint: mean survival time, dose: 400.0 mg/kg/injection, schedule: Q04DX003 (ip), vehicle: saline with Tween-80
[7] = endpoint: mean survival time, dose: 100.0 mg/kg/injection, schedule: Q04DX003 (ip), vehicle: saline
[8] = endpoint: mean survival time, dose: 200.0 mg/kg/injection, schedule: Q04DX003 (ip), vehicle: saline

Measured: T/C

CC1(C)N=C(N)N=C(N)N1c1cccc(CCCCc2ccc(Cl)c(S(=O)(=O)F)c2)c1
inactive: endpoint: mean survival time, dose: 1.8 mg/kg/injection, schedule: Q01DX009 (ip), vehicle: saline 98 % of control | endpoint: mean survival time, dose: 3.5 mg/kg/injection, schedule: Q01DX009 (ip), vehicle: saline 93 % of control | endpoint: mean survival time, dose: 7.0 mg/kg/injection, schedule: Q01DX009 (ip), vehicle: saline 91 % of control | endpoint: mean survival time, dose: 14.0 mg/kg/injection, schedule: Q01DX009 (ip), vehicle: saline 89 % of control | endpoint: mean survival time, dose: 28.0 mg/kg/injection, schedule: Q01DX009 (ip), vehicle: saline 104 % of control | endpoint: mean survival time, dose: 200.0 mg/kg/injection, schedule: Q04DX003 (ip), vehicle: saline sonified 86 % of control

c1cc2c3c(c4sc5ccccc5c4cc3c1)CC2
inactive: endpoint: mean survival time, dose: 12.5 mg/kg/injection, schedule: Q04DX003 (ip), vehicle: other 101 % of control | endpoint: mean survival time, dose: 25.0 mg/kg/injection, schedule: Q04DX003 (ip), vehicle: other 115 % of control | endpoint: mean survival time, dose: 50.0 mg/kg/injection, schedule: Q04DX003 (ip), vehicle: other 108 % of control | endpoint: mean survival time, dose: 100.0 mg/kg/injection, schedule: Q04DX003 (ip), vehicle: other 115 % of control | endpoint: mean survival time, dose: 200.0 mg/kg/injection, schedule: Q04DX003 (ip), vehicle: other 108 % of control

CCOC(=O)c1cnc2c(cnn2CC)c1N1CCCCC1
inactive: endpoint: mean survival time, dose: 100.0 mg/kg/injection, schedule: Q04DX003 (ip), vehicle: Klucel (hydroxypropylcellulose) (HPC) 89 % of control | endpoint: mean survival time, dose: 200.0 mg/kg/injection, schedule: Q04DX003 (ip), vehicle: Klucel (hydroxypropylcellulose) (HPC) 97 % of control

N#CC(C(=O)N1CCCC1)=C(S)S
inactive: [1] 102 % of control | [2] 100 % of control | [3] 101 % of control | [4] 100 % of control | [5] 102 % of control | [6] 103 % of control

CC(=O)Nc1cccc(C[P+](c2ccccc2)(c2ccccc2)c2ccccc2)c1
inactive: [2] 92 % of control | [4] 92 % of control

COC(=O)/C=C/CNC(C)C
inactive: endpoint: mean survival time, dose: 12.5 mg/kg/injection, schedule: Q01DX009 (ip), vehicle: water 93 % of control | endpoint: mean survival time, dose: 25.0 mg/kg/injection, schedule: Q01DX009 (ip), vehicle: water 95 % of control | endpoint: mean survival time, dose: 50.0 mg/kg/injection, schedule: Q01DX009 (ip), vehicle: water 96 % of control | endpoint: mean survival time, dose: 100.0 mg/kg/injection, schedule: Q01DX009 (ip), vehicle: water 96 % of control | endpoint: mean survival time, dose: 200.0 mg/kg/injection, schedule: Q01DX009 (ip), vehicle: water 101 % of control

CC1(C)OCC2OC=CC(=O)C2O1 (stereo not drawn)
inactive: endpoint: median survival time, dose: 25.0 mg/kg/injection, schedule: Q01DX009 (ip), vehicle: suspension in saline 94 % of control | endpoint: median survival time, dose: 50.0 mg/kg/injection, schedule: Q01DX009 (ip), vehicle: suspension in saline 103 % of control | endpoint: median survival time, dose: 100.0 mg/kg/injection, schedule: Q01DX009 (ip), vehicle: suspension in saline 101 % of control | endpoint: median survival time, dose: 200.0 mg/kg/injection, schedule: Q01DX009 (ip), vehicle: suspension in saline 97 % of control | endpoint: median survival time, dose: 400.0 mg/kg/injection, schedule: Q01DX009 (ip), vehicle: suspension in saline 104 % of control

CN(C)CCCN=C(N)CSP(=O)(O)O
inactive: endpoint: mean survival time, dose: 100.0 mg/kg/injection, schedule: Q04DX002 (ip), vehicle: saline 102 % of control | endpoint: mean survival time, dose: 200.0 mg/kg/injection, schedule: Q04DX002 (ip), vehicle: saline 109 % of control

CC(C)C(Br)C(Br)c1ccccc1 (stereo not drawn)
inactive: [7] 96 % of control | [8] 102 % of control

O=S1(=O)OCCC1=C(c1ccccc1)c1ccccc1
inactive: endpoint: mean survival time, dose: 75.0 mg/kg/injection, schedule: Q04DX003 (ip), vehicle: saline 95 % of control | endpoint: mean survival time, dose: 150.0 mg/kg/injection, schedule: Q04DX003 (ip), vehicle: saline 97 % of control | endpoint: mean survival time, dose: 300.0 mg/kg/injection, schedule: Q04DX003 (ip), vehicle: saline 91 % of control

N#Cc1cn(C2CCCCC2)c2[nH]c(=O)cc(O)c12
inactive: [7] 97 % of control | [8] 101 % of control | endpoint: mean survival time, dose: 400.0 mg/kg/injection, schedule: Q04DX003 (ip), vehicle: saline 121 % of control

CCCCCCC(=O)CCCCCC/C=C/CC(O)C(O)C(N)(CO)C(=O)O (stereo not drawn)
inactive: endpoint: mean survival time, dose: 12.5 mg/kg/injection, schedule: Q04DX002 (ip), vehicle: saline with Tween-80 86 % of control

CC(=O)C1C(=O)CC(C)(O)C(C(C)=O)C1c1ccccc1 (stereo not drawn)
inactive: [1] 93 % of control | [2] 101 % of control | [3] 96 % of control | [4] 101 % of control | [5] 94 % of control | [6] 103 % of control
